{"source": "paper PMC12102759", "about": "(Protein Science : A Publication of the Protein Society, 2025)", "key": {"G3BP1 NFT2": {"test_system": "G3BP1 NFT2", "format": "binding, human", "conditions": "library DMS-CoV, bait G3BP1 NFT2, prey N, listed as aa = residue placed at this position, column sums to 1"}, "PABPC1 PABC": {"test_system": "PABPC1 PABC", "format": "binding, human", "conditions": "DMS-BM library, bait PABPC1 PABC, row aa = residue at this position"}, "[1]": {"conditions": "prey ATXN2, TLNPNAKEFNPRSF(averaged) over the two overlapping peptides, F = wild type"}, "[2]": {"conditions": "prey ATXN2, TLNPNAKEFNPRSF(averaged) over the two overlapping peptides, N = wild type"}, "[3]": {"conditions": "prey ATXN2, TLNPNAKEFNPRSF(averaged) over the two overlapping peptides, P = wild type"}, "[4]": {"conditions": "prey ATXN2, peptide KSTLNPNAKEFNPRSF, N = wild type"}}, "note": "Where two headings read alike, the source gives them in different places."}
{"substance": "APRITFGGPSDSTGSN G8L (APRITFGLPSDSTGSN)", "values": [{"measurement": "DMS PSSM value, G (position 8)", "setting": "G3BP1 NFT2; peptide APRITFGGPSDSTGSN", "value": 0.0001736}]}
{"substance": "APRITFGGPSDSTGSN S12G (APRITFGGPSDGTGSN)", "values": [{"measurement": "DMS PSSM value, S (position 12)", "setting": "G3BP1 NFT2; peptide APRITFGGPSDSTGSN", "value": 0.0009188}]}
{"substance": "APRITFGGPSDSTGSN T13E (APRITFGGPSDSEGSN)", "values": [{"measurement": "DMS PSSM value, T (position 13)", "setting": "G3BP1 NFT2; peptide APRITFGGPSDSTGSN", "value": 0.0383}]}
{"substance": "APRITFGGPSDSTGSN I4K (APRKTFGGPSDSTGSN)", "values": [{"measurement": "DMS PSSM value, I (position 4)", "setting": "G3BP1 NFT2; peptide APRITFGGPSDSTGSN", "value": 0}]}
{"substance": "APRITFGGPSDSTGSN G14R (APRITFGGPSDSTRSN)", "values": [{"measurement": "DMS PSSM value, G (position 14)", "setting": "G3BP1 NFT2; peptide APRITFGGPSDSTGSN", "value": 0.002725}]}
{"substance": "APRITFGGPSDSTGSN A1P (PPRITFGGPSDSTGSN)", "values": [{"measurement": "DMS PSSM value, A (position 1)", "setting": "G3BP1 NFT2; peptide APRITFGGPSDSTGSN", "value": 0.006009}]}
{"substance": "APRITFGGPSDSTGSN F6Y (APRITYGGPSDSTGSN)", "values": [{"measurement": "DMS PSSM value, F (position 6)", "setting": "G3BP1 NFT2; peptide APRITFGGPSDSTGSN", "value": 0.004533}]}
{"substance": "APRITFGGPSDSTGSN R3K (APKITFGGPSDSTGSN)", "values": [{"measurement": "DMS PSSM value, R (position 3)", "setting": "G3BP1 NFT2; peptide APRITFGGPSDSTGSN", "value": 0.0004363}]}
{"substance": "RNAPRITFGGPSDSTG S12A (RNAPRITFGGPADSTG)", "values": [{"measurement": "DMS PSSM value, S (position 12)", "setting": "G3BP1 NFT2; peptide RNAPRITFGGPSDSTG", "value": 0.3916}]}
{"substance": "RNAPRITFGGPSDSTG G9Y (RNAPRITFYGPSDSTG)", "values": [{"measurement": "DMS PSSM value, G (position 9)", "setting": "G3BP1 NFT2; peptide RNAPRITFGGPSDSTG", "value": 0}]}
{"substance": "RNAPRITFGGPSDSTG G10P (RNAPRITFGPPSDSTG)", "values": [{"measurement": "DMS PSSM value, G (position 10)", "setting": "G3BP1 NFT2; peptide RNAPRITFGGPSDSTG", "value": 0}]}
{"substance": "RNAPRITFGGPSDSTG R5W (RNAPWITFGGPSDSTG)", "values": [{"measurement": "DMS PSSM value, R (position 5)", "setting": "G3BP1 NFT2; peptide RNAPRITFGGPSDSTG", "value": 0}]}
{"substance": "RNAPRITFGGPSDSTG N2I (RIAPRITFGGPSDSTG)", "values": [{"measurement": "DMS PSSM value, N (position 2)", "setting": "G3BP1 NFT2; peptide RNAPRITFGGPSDSTG", "value": 0}]}
{"substance": "APRITFGGPSDSTGSN T13M (APRITFGGPSDSMGSN)", "values": [{"measurement": "DMS PSSM value, T (position 13)", "setting": "G3BP1 NFT2; peptide APRITFGGPSDSTGSN", "value": 0.06406}]}
{"substance": "RNAPRITFGGPSDSTG T7W (RNAPRIWFGGPSDSTG)", "values": [{"measurement": "DMS PSSM value, T (position 7)", "setting": "G3BP1 NFT2; peptide RNAPRITFGGPSDSTG", "value": 0}]}
{"substance": "RNAPRITFGGPSDSTG S14R (RNAPRITFGGPSDRTG)", "values": [{"measurement": "DMS PSSM value, S (position 14)", "setting": "G3BP1 NFT2; peptide RNAPRITFGGPSDSTG", "value": 0}]}
{"substance": "APRITFGGPSDSTGSN P9K (APRITFGGKSDSTGSN)", "values": [{"measurement": "DMS PSSM value, P (position 9)", "setting": "G3BP1 NFT2; peptide APRITFGGPSDSTGSN", "value": 0}]}
{"substance": "APRITFGGPSDSTGSN G14N (APRITFGGPSDSTNSN)", "values": [{"measurement": "DMS PSSM value, G (position 14)", "setting": "G3BP1 NFT2; peptide APRITFGGPSDSTGSN", "value": 0.000305}]}
{"substance": "RNAPRITFGGPSDSTG G10T (RNAPRITFGTPSDSTG)", "values": [{"measurement": "DMS PSSM value, G (position 10)", "setting": "G3BP1 NFT2; peptide RNAPRITFGGPSDSTG", "value": 0}]}
{"substance": "RNAPRITFGGPSDSTG S12Y (RNAPRITFGGPYDSTG)", "values": [{"measurement": "DMS PSSM value, S (position 12)", "setting": "G3BP1 NFT2; peptide RNAPRITFGGPSDSTG", "value": 0}]}
{"substance": "RNAPRITFGGPSDSTG S14A (RNAPRITFGGPSDATG)", "values": [{"measurement": "DMS PSSM value, S (position 14)", "setting": "G3BP1 NFT2; peptide RNAPRITFGGPSDSTG", "value": 0}]}
{"substance": "RNAPRITFGGPSDSTG I6M (RNAPRMTFGGPSDSTG)", "values": [{"measurement": "DMS PSSM value, I (position 6)", "setting": "G3BP1 NFT2; peptide RNAPRITFGGPSDSTG", "value": 0}]}
{"substance": "TLNPNAKEFNPRSF", "values": [{"measurement": "DMS-derived PSSM value (averaged), position A6", "setting": "PABPC1 PABC; prey ATXN2, TLNPNAKEFNPRSF(averaged) over the two overlapping peptides, A = wild type", "value": 0.4881}, {"measurement": "DMS-derived PSSM value (averaged), position E8", "setting": "PABPC1 PABC; prey ATXN2, TLNPNAKEFNPRSF(averaged) over the two overlapping peptides, E = wild type", "value": 0.1343}, {"measurement": "DMS-derived PSSM value (averaged), position F9", "setting": "PABPC1 PABC; [1]", "value": 0.3018}, {"measurement": "DMS-derived PSSM value (averaged), position F14", "setting": "PABPC1 PABC; [1]", "value": 0.06062}, {"measurement": "DMS-derived PSSM value (averaged), position K7", "setting": "PABPC1 PABC; prey ATXN2, TLNPNAKEFNPRSF(averaged) over the two overlapping peptides, K = wild type", "value": 0.01034}, {"measurement": "DMS-derived PSSM value (averaged), position L2", "setting": "PABPC1 PABC; prey ATXN2, TLNPNAKEFNPRSF(averaged) over the two overlapping peptides, L = wild type", "value": 0.5343}, {"measurement": "DMS-derived PSSM value (averaged), position N3", "setting": "PABPC1 PABC; [2]", "value": 0.5964}, {"measurement": "DMS-derived PSSM value (averaged), position N5", "setting": "PABPC1 PABC; [2]", "value": 0.0195}, {"measurement": "DMS-derived PSSM value (averaged), position N10", "setting": "PABPC1 PABC; [2]", "value": 0.05544}, {"measurement": "DMS-derived PSSM value (averaged), position P4", "setting": "PABPC1 PABC; [3]", "value": 0.1195}, {"measurement": "DMS-derived PSSM value (averaged), position P11", "setting": "PABPC1 PABC; [3]", "value": 0.04091}, {"measurement": "DMS-derived PSSM value (averaged), position R12", "setting": "PABPC1 PABC; prey ATXN2, TLNPNAKEFNPRSF(averaged) over the two overlapping peptides, R = wild type", "value": 0.02883}, {"measurement": "DMS-derived PSSM value (averaged), position S13", "setting": "PABPC1 PABC; prey ATXN2, TLNPNAKEFNPRSF(averaged) over the two overlapping peptides, S = wild type", "value": 0.05759}, {"measurement": "DMS-derived PSSM value (averaged), position T1", "setting": "PABPC1 PABC; prey ATXN2, TLNPNAKEFNPRSF(averaged) over the two overlapping peptides, T = wild type", "value": 0.0418}]}
{"substance": "KSTLNPNAKEFNPRSF N7W (KSTLNPWAKEFNPRSF)", "values": [{"measurement": "DMS-derived PSSM value, position N7", "setting": "PABPC1 PABC; [4]", "value": 0}]}
{"substance": "KSTLNPNAKEFNPRSF T3H (KSHLNPNAKEFNPRSF)", "values": [{"measurement": "DMS-derived PSSM value, position T3", "setting": "PABPC1 PABC; prey ATXN2, peptide KSTLNPNAKEFNPRSF, T = wild type", "value": 0.01262}]}
{"substance": "KSTLNPNAKEFNPRSF N12M (KSTLNPNAKEFMPRSF)", "values": [{"measurement": "DMS-derived PSSM value, position N12", "setting": "PABPC1 PABC; [4]", "value": 0.08333}]}
{"substance": "KSTLNPNAKEFNPRSF E10L (KSTLNPNAKLFNPRSF)", "values": [{"measurement": "DMS-derived PSSM value, position E10", "setting": "PABPC1 PABC; prey ATXN2, peptide KSTLNPNAKEFNPRSF, E = wild type", "value": 0}]}
{"substance": "TLNPNAKEFNPRSF(averaged) N5H (TLNPHAKEFNPRSF)", "values": [{"measurement": "DMS-derived PSSM value (averaged), position N5", "setting": "PABPC1 PABC; [2]", "value": 0.03609}]}
{"substance": "TLNPNAKEFNPRSFSQ E8Y (TLNPNAKYFNPRSFSQ)", "values": [{"measurement": "DMS-derived PSSM value, position E8", "setting": "PABPC1 PABC; prey ATXN2, peptide TLNPNAKEFNPRSFSQ, E = wild type", "value": 0.04993}]}
{"substance": "TLNPNAKEFNPRSFSQ L2P (TPNPNAKEFNPRSFSQ)", "values": [{"measurement": "DMS-derived PSSM value, position L2", "setting": "PABPC1 PABC; prey ATXN2, peptide TLNPNAKEFNPRSFSQ, L = wild type", "value": 0.03756}]}
{"substance": "KSTLNPNAKEFNPRSF N5H (KSTLHPNAKEFNPRSF)", "values": [{"measurement": "DMS-derived PSSM value, position N5", "setting": "PABPC1 PABC; [4]", "value": 0}]}
{"substance": "KSTLNPNAKEFNPRSF N5P (KSTLPPNAKEFNPRSF)", "values": [{"measurement": "DMS-derived PSSM value, position N5", "setting": "PABPC1 PABC; [4]", "value": 0}]}
